Data from patent publication US20170276611A1, “CHALCOGENOPYRYLIUM DYES, COMPOSITIONS COMPRISING SAME, COMPOSITE NANOPARTICLES COMPRISING SAME, AND METHODS OF MAKING AND USING THE SAME” (The Research Foundation for The State University of New York, priority 2014, published 2017).

Test: UV/VIS-near-IR absorption of the dyes
Format: physicochemical
Details: for ε (CH2Cl2): molar extinction coefficient in CH2Cl2
Method: Synthetic Methods. All reactions were performed open to air unless otherwise noted. Concentration in vacuo was performed on a rotary evaporator. NMR spectra were recorded at 300 or 500 MHz for ^1H and at 75.5 MHz for ^13C with residual solvent signal as internal standard. UV/VIS-near-IR spectra were recorded in quartz cuvettes with a 1-cm path length. Melting points were determined with a capillary melting point apparatus and are uncorrected. […] Pyranones 16b-16d are known compounds (J. Heterocycl. Chem. 1999, 36, 707-717). The synthesis of thiopyranone 16a and 4-methylpyrylium salt 15c is shown in Scheme 2. 4-Methylpyrylium salts 15a, 15d, and 15e have been reported previously in the literature (J. Org. Chem. 1982, 47, 5235-5239; Organometallics 1988, 7, 1131-1147; Dyes Pigm. 2000, 45, 1-7).

## C(=Cc1cc(-c2ccc[se]2)[s+]c(-c2ccc[se]2)c1)C=C1C=C(c2ccc[se]2)SC(c2ccc[se]2)=C1.F[P-](F)(F)(F)(F)F [Dye 14, 4-(3-(2,6-di(selenophen-2-yl)-4H-thiopyran-4-ylidene)prop-1-en-1-yl)-2,6-di(selenophen-2-yl)thiopyrylium hexafluorophosphate]
Absorption maximum in CH2Cl2
  λmax (CH2Cl2): 826 nm
  ε (CH2Cl2): 230000 M⁻¹ cm⁻¹

## C(=C1C=C(c2ccccc2)[Se]C(c2ccccc2)=C1)c1cc(-c2cccs2)[s+]c(-c2cccs2)c1.F[P-](F)(F)(F)(F)F [Dye 2, 4-((2,6-diphenyl-4H-selenopyran-4-ylidene)methyl)-2,6-di(thiophen-2-yl)thiopyrylium hexafluorophosphate]
Absorption maximum in CH2Cl2
  λmax (CH2Cl2): 676 nm
  ε (CH2Cl2): 130000 M⁻¹ cm⁻¹

## C(=C1C=C(c2ccccc2)SC(c2ccccc2)=C1)c1cc(-c2ccc[se]2)[s+]c(-c2ccc[se]2)c1.F[P-](F)(F)(F)(F)F [Dye 7, 4-((2,6-diphenyl-4H-thiopyran-4-ylidene)methyl)-2,6-di(selenophen-2-yl)thiopyrylium hexafluorophosphate]
Absorption maximum in CH2Cl2
  λmax (CH2Cl2): 659 nm
  ε (CH2Cl2): 140000 M⁻¹ cm⁻¹

## C(=Cc1cc(-c2ccccc2)[s+]c(-c2ccccc2)c1)C=C1C=C(c2cccs2)SC(c2cccs2)=C1.F[P-](F)(F)(F)(F)F [Dye 12, 4-(3-(2,6-dithiophen-2-yl-4H-thiopyran-4-ylidene)prop-1-enyl)-2,6-diphenylthiopyrylium hexafluorophosphate]
Absorption maximum in CH2Cl2
  λmax (CH2Cl2): 789 nm
  ε (CH2Cl2): 220000 M⁻¹ cm⁻¹

## C(=C1C=C(c2ccc[se]2)SC(c2ccc[se]2)=C1)c1cc(-c2ccc[se]2)[s+]c(-c2ccc[se]2)c1.F[P-](F)(F)(F)(F)F [Dye 8, 4-((2,6-di(selenophen-2-yl)-4H-thiopyran-4-ylidene)methyl)-2,6-di(selenophen-2-yl)thiopyrylium hexafluorophosphate]
Absorption maximum in CH2Cl2
  λmax (CH2Cl2): 687 nm
  ε (CH2Cl2): 110000 M⁻¹ cm⁻¹

## C(=C1C=C(c2ccccc2)[Se]C(c2ccccc2)=C1)c1cc(-c2cccs2)[se+]c(-c2cccs2)c1.F[P-](F)(F)(F)(F)F [Dye 3, 4-((2,6-diphenyl-4H-selenopyran-4-ylidene)methyl)-2,6-di(thiophen-2-yl)selenopyrylium hexafluorophosphate]
Absorption maximum in CH2Cl2
  λmax (CH2Cl2): 699 nm
  ε (CH2Cl2): 150000 M⁻¹ cm⁻¹

## C(=Cc1cc(-c2cccs2)[s+]c(-c2cccs2)c1)C=C1C=C(c2cccs2)SC(c2cccs2)=C1.F[P-](F)(F)(F)(F)F [Dye 3, 4-(3-(2,6-dithiophen-2-yl-4H-thiopyran-4-ylidene)prop-1-enyl)-(2,6-dithiophen-2-yl)thiopyrylium hexafluorophosphate]
Table 2, Example 2 dyes
  Log (ε): 5.45
Table 2, Example 2 dyes, CH2Cl2
  λmax (CH2Cl2): 813 nm

## C(=Cc1cc(-c2ccccc2)[se+]c(-c2ccccc2)c1)C=C1C=C(c2cccs2)SC(c2cccs2)=C1.F[P-](F)(F)(F)(F)F [Dye 11, 4-(3-(2,6-dithiophen-2-yl-4H-thiopyran-4-ylidene)prop-1-enyl)-2,6-diphenylselenopyrylium hexafluorophosphate]
Absorption maximum in CH2Cl2
  λmax (CH2Cl2): 810 nm
  ε (CH2Cl2): 250000 M⁻¹ cm⁻¹

## C1=C(/C=C/C=C2\C=C(c3ccccc3)[Se]c3ccccc32)C=C(c2ccccc2)[SH]=C1c1ccccc1 [Dye 16, 4-(3-(2,6-diphenyl-4H-thiopyran-4-ylidene)prop-1-enyl)-2-phenylselenobenzopyrylium hexafluorophosphate]
Absorption maximum in CH2Cl2
  λmax (CH2Cl2): 748 nm
  ε (CH2Cl2): 61000 M⁻¹ cm⁻¹
